Assays:
platelet = test: Platelet-increasing activity (platelet count, Fonio direct method); format: in vivo, mice; conditions: for increase of the number of platelet versus control: 1 mg/0.5 ml./body i.p., 10 mins. after administration, versus Ringer-Locke control
Experimental: Platelet-Increasing Activity: • The compound having the formula shown in Example 1 was intraperitoneously administered to ddY female ten(10) mice as one grouping at the dose of 1 mg/0.5 ml./body in the form of a Ringer-Locke solution (1 mg. of the compound was dissolved in a Ringer-Locke solution). One eyeball was isolated 10 mins. after the administration to bleed. Blood was collected and the number of platelet was measured according to a direct method (Fonio original method), details of which are described in Dsch. Z. Schr. Chir., vol. 117, page 176 (1912).
As a control group, a Ringer-Locke solution was intraperitoneously administered at the dose of 0.5 ml/body for comparison.
Activity on Platelet-Increase: • The procedure similar to Example 3 was repeated except that the compound of Example 3 was used instead of the compound of Example 1.

[1] = Toxicity / neurotoxic activity (no method described)
Male mice = test: Hemostatic test (bleeding time after wounding the tail vein); format: in vivo; conditions: for rate of shortening bleeding time (shortened rate): summary in the description; for Bleeding Time (mean±S.E.) After Administration / Shortened Time (mean±S.E.) / Shortened Rate: Table 7; for Bleeding Time (mean±S.E.) After Administration / Shortened Time (mean±S.E.): mean of five tests, dose not stated; for Shortened Rate: shortened time relative to bleeding time before administration
Experimental: The present invention will be described in more detail with reference to the examples below, in which hemostatic test was performed as follows:
Male mice weighing 15 to 20 g. were intraperitoneously given with 0.5 ml. of a Locke solution. The mice-.were holded on a mouse holder 10 minutes after the administration, where the left vein of the tail at the middle of the tail (3 to 4 cm. from the root of the tail) was wounded with a knife to bleed. A filter paper was softly touched with the incised wound at the interval of 30 seconds and observation was made if blood was transferred onto the filter paper. Time until blood was not transferred onto the filter paper was measured and was made a bleeding time for control
Subsequently, a test compound dissolved in 0.5 ml. of a Locke solution was intraperitoneously administered to the same mice. The mice were holded onto a mouse holder 10 minutes after the administration. The right vein at the middle of the tail was wounded with a knife and a bleeding time was measured as in control described above.
A difference in bleeding time between the control and the test compound was made a shortened time for bleed-stopping.

Row | Compound | increase of the number of platelet versus control (platelet; ddY female mice) | Number of Platelet (platelet; Table 6, same procedure as Table 4 (1 mg/0.5 ml./body i.p., ddY female mice)) | neurotoxic side effect / neurotoxic activity (in words) [1] | rate of shortening bleeding time (shortened rate) (Male mice) [%] | Number of Platelet (platelet; Table 4, 1 mg/0.5 ml./body i.p. in Ringer-Locke solution, ddY female mice, 10 per group, blood 10 mins. after administration) | Bleeding Time (mean±S.E.) After Administration (Male mice) [s] | Shortened Time (mean±S.E.) (Male mice) | Shortened Rate (Male mice) [%] | increase of the number of platelet as compared to a control (platelet; dose not stated) | toxicity relative to that of the oxalyl derivative ([1]; compared with L-N-β-oxalyl-α, β-diaminopropionic acid)
1 | N[C@H](CNC(=O)C(=O)O)C(=O)O [Compound of Example 3, D-N-β-Oxalyl- α, β -diaminopropionic acid] | ~24% | 68.0 ± 7.35 10,000/mm^3 | slighter in neurotoxic activity | 35 | – | – | – | – | – | –
2 | N[C@@H](CNC(=O)C(=O)O)C(=O)O [compound of Example 1, L-N-β-oxalyl-α,β-diaminopropionic acid] | about 30% | – | does not exhibit neurotoxic side effect | 35 | 69.6 ± 6.31 10,000/mm^3 | 354 ± 45 | 192 ± 36 s | 35.16 | – | –
3 | NC[C@H](N)C(=O)O [α,β-diaminopro-pionic acid, L-α, β-diaminopropionic acid] | – | – | – | 44 | – | 306 ± 37 | 240±33 p<0.05 second | 43.96 | about 17% | about 1/5
